According to patent US10428080B2, “TBK/IKK inhibitor compounds and uses thereof” (Merck Patent GmbH, priority 2015, dated 2019):
Where a name gives a salt, the structure may show the parent alone.

Columns and labels:
[1] = biological target: T1, TBK1 (Homo sapiens, UniProt Q9UHD2); assay: TBK Biochemical Assay; settings: read-out: TBK1 IC50
T1 sequence (Q9UHD2 1-729): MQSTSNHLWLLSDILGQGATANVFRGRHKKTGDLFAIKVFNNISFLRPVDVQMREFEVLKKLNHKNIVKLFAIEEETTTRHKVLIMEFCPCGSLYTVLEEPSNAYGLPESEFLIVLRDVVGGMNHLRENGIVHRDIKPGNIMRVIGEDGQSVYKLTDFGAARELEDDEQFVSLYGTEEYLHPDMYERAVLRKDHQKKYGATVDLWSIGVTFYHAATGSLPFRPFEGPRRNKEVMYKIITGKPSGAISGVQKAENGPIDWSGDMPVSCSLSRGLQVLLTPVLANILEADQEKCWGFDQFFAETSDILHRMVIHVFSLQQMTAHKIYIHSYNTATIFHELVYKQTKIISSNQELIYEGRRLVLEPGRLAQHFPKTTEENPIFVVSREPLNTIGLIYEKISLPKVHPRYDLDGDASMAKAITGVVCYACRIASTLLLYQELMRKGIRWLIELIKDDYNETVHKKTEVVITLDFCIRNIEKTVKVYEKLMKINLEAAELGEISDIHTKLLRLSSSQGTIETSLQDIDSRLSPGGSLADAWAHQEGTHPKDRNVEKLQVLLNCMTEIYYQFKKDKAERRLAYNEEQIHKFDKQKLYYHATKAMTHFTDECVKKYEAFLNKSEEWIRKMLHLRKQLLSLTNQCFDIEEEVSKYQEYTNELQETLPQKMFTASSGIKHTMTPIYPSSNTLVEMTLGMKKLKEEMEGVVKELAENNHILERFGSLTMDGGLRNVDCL
Method in brief: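 Caliper LabChip mobility-shift readout of substrate and product after 90 min of TBK1 reaction at 25° C and stop-buffer addition. Compounds tested in 1:4 serial dilution over 10 points from 30 uM final at 1% DMSO; staurosporine 10 uM final defines full inhibition.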

[2] = biological target: T2, IKKε (Homo sapiens, UniProt Q14164); assay: IKKe Biochemical Assay; settings: read-out: IKKε IC50
T2 sequence (Q14164 1-716): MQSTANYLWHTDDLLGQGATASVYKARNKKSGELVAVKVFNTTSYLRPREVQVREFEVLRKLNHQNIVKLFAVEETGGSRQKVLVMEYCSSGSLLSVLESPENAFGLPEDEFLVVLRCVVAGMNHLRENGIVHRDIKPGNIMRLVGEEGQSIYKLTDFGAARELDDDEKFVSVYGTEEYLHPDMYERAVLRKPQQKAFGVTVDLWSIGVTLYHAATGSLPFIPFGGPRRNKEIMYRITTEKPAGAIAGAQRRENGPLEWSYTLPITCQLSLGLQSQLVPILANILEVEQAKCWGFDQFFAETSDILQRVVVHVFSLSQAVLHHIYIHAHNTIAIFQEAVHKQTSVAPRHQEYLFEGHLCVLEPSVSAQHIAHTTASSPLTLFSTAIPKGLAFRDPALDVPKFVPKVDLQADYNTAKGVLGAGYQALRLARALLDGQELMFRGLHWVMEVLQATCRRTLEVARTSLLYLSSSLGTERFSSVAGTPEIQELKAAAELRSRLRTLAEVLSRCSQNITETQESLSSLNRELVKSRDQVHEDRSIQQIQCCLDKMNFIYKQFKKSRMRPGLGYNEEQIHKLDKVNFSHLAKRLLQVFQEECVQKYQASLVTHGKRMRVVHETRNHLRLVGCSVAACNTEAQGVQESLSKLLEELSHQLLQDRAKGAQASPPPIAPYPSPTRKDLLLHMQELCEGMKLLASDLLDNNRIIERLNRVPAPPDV
Method in brief: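 Activity was measured as mobility-shift separation of phosphorylated from unphosphorylated substrate on a LabChip EZ Reader. Compound was titrated from 30 uM final in 10 points, 1:4 steps, with 1% DMSO, and enzyme plus substrate reacted 90 min at 25° C before stop buffer. Control wells held 10 uM staurosporine.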

For `CN(C)C(=O)c1ccc(-c2cc3nccc(-c4ccc(N5CC[C@H](F)C5)c(C#N)c4)c3o2)nc1` (single isomer, unassigned) [Compound 273, 6-(7-(3-cyano-4-(3-fluoropyrrolidin-1-yl)phenyl)furo[3,2-b]pyridin-2-yl)-N,N-dimethylnicotinamide hydrochloride], the IC50 [1] was under 100 nM and the IC50 [2] was under 100 nM.
`CNC(=O)c1ccc(-c2cc3nccc(-c4ccc(OC5CCOCC5)c(C#N)c4)c3o2)c(OC)c1` [Compound 100, 4-{7-[3-Cyano-4-(tetrahydro-pyran-4-yloxy)-phenyl]-furo[3,2-b]pyridin-2-yl}-3-methoxy-N-methyl-benzamide] was tested, and the IC50 [1] was under 100 nM and the IC50 [2] was under 100 nM.
Work on `COc1cc(C(=O)N(C)C)cc(F)c1-c1cc2nccc(-c3ccc(NC4CCOCC4)c(C#N)c3)c2o1` [Compound 255, 4-(7-(3-cyano-4-(tetrahydro-2H-pyran-4-ylamino)phenyl)furo[3,2-b]pyridin-2-yl)-3-fluoro-5-methoxy-N,N-dimethylbenzamide] yielded an IC50 [1] of under 100 nM and an IC50 [2] of under 100 nM.
Work on `CN(C)C(=O)c1ccc(-c2cc3nccc(-c4cc(F)c(OC5CCOCC5)c(C#N)c4)c3o2)nc1` [Compound 245, 6-(7-(3-cyano-5-fluoro-4-(tetrahydro-2H-pyran-4-yloxy)phenyl)furo[3,2-b]pyridin-2-yl)-N,N-dimethylnicotinamide hydrochloride] yielded an IC50 [1] of 100 to 1000 nM and an IC50 [2] of 100 to 1000 nM.
Work on `COc1cc(C(=O)N(C)C)ccc1-c1cc2nccc(-c3ccc(OCC4CNC4)c(C#N)c3)c2o1` [Compound 165, 4-{7-[4-(Azetidin-3-ylmethoxy)-3-cyano-phenyl]-furo[3,2-b]pyridin-2-yl}-3-methoxy-N,N-dimethyl-benzamide] yielded an IC50 [1] of 100 to 1000 nM and an IC50 [2] of 100 to 1000 nM.
`COc1cc(C(=O)N(C)CCO)ncc1-c1cc2nccc(-c3cc(C#N)c(OC4CCOCC4)cn3)c2o1` [Compound 377, 5-[7-[4-cyano-5-(oxan-4-yloxy)pyridin-2-pyridin-2-yl]furo[3,2-b]pyridin-2-yl]-N-(2-hydroxyethyl)-4-methoxy-N-methylpyridine-2-carboxamide] showed an IC50 [1] of 100 to 1000 nM and an IC50 [2] of 100 to 1000 nM.
With `CN(C)C(=O)c1ccc(-c2cc3nccc(-c4ccc(O)c(C#N)c4)c3o2)cc1` [Compound 175, 4-[7-(3-Cyano-4-hydroxy-phenyl)-furo[3,2-b]pyridin-2-yl]-N,N-dimethyl-benzamide] the IC50 [1] was 100 to 1000 nM and the IC50 [2] was 100 to 1000 nM.
`COc1cc(C(=O)N(C)C)cnc1-c1cc2ncc(C3CC3)c(-c3ccc(OC4CCOCC4)c(C#N)n3)c2o1` [Compound 357, 6-[7-[6-cyano-5-(oxan-4-yloxy)pyridin-2-yl]-6-cyclopropylfuro[3,2-b]pyridin-2-yl]-5-methoxy-N,N-dimethylpyridine-3-carboxamide hydrochloride] was tested, and the IC50 [1] was over 5000 nM and the IC50 [2] was over 5000 nM.
Compound `COc1cc(C(=O)N(C)C)ccc1-c1cc2nccc(-c3ccc(NC4CCCOC4)c(C#N)c3)c2o1` (stereo not drawn) [Compound 164] has an IC50 [1] of 100 to 1000 nM and an IC50 [2] of 100 to 1000 nM.
With `CCOC(=O)c1ccc(-c2cc3nccc(-c4ccc(N5CC[C@@H](F)C5)c(C#N)c4)c3o2)cc1` [Compound 191, 4-{7-[3-Cyano-4-((R)-3-fluoro-pyrrolidin-1-yl)-phenyl]-furo[3,2-b]pyridin-2-yl}-benzoic acid ethyl ester] the IC50 [1] was over 5000 nM and the IC50 [2] was 100 to 1000 nM.
For `COc1cc(C(=O)N[C@@H]2CCNC[C@@H]2F)ccc1-c1cc2nccc(-c3cc(F)c(NC4CCOCC4)c(C#N)c3)c2o1` (single isomer, unassigned) [Compound 253, 4-(7-(3-cyano-5-fluoro-4-(tetrahydro-2H-pyran-4-ylamino)phenyl)furo[3,2-b]pyridin-2-yl)-N-(3-fluoropiperidin-4-yl)-3-methoxybenzamide hydrochloride], the IC50 [1] was under 100 nM and the IC50 [2] was under 100 nM.
With `COc1cc(C(=O)NC2CCOCC2F)ccc1-c1cc2nccc(-c3ccc(OC4CCOCC4)c(C#N)c3)c2o1` (stereo not drawn) [Compound 102, 4-{7-[3-Cyano-4-(tetrahydro-pyran-4-yloxy)-phenyl]-furo[3,2-b]pyridin-2-yl}-N-(3-fluoro-tetrahydro-pyran-4-yl)-3-methoxy-benzamide] the IC50 [1] was under 100 nM and the IC50 [2] was under 100 nM.
Work on `CN(C)C(=O)c1ccc(-c2cc3nccc(-c4ccc(NC5CCOCC5)c(C#N)c4)c3o2)c(F)c1` [Compound 250, 4-(7-(3-cyano-4-(tetrahydro-2H-pyran-4-ylamino)phenyl)furo[3,2-b]pyridin-2-yl)-3-fluoro-N,N-dimethylbenzamide] yielded an IC50 [1] of 100 to 1000 nM and an IC50 [2] of 100 to 1000 nM.
`COc1cc(C(=O)N(C)C)ccc1-c1cc2nccc(-c3ccc(OCC4CCNC4)c(C#N)c3)c2o1` (stereo not drawn) [Compound 152, 4-{7-[3-Cyano-4-(pyrrolidin-3-ylmethoxy)-phenyl]-furo[3,2-b]pyridin-2-yl}-3-methoxy-N,N-dimethyl-benzamide hydrochloride] was tested, and the IC50 [1] was under 100 nM and the IC50 [2] was under 100 nM.
Work on `COc1cc(C(=O)N(C)C)ccc1-c1cc2nccc(-c3ccc(O[C@H]4CCNC4)c(C#N)c3)c2o1` [Compound 121, 4-{7-[3-Cyano-4-((S)-pyrrolidin-3-yloxy)-phenyl]-furo[3,2-b]pyridin-2-yl}-3-methoxy-N,N-dimethyl-benzamide] yielded an IC50 [1] of under 100 nM and an IC50 [2] of under 100 nM.
`N#Cc1cc(-c2ccnc3cc(-c4ccc(C(=O)O)cc4)oc23)ccc1Oc1cccnc1` [Compound 186, 4-{7-[3-Cyano-4-(pyridin-3-yloxy)-phenyl]-furo[3,2-b]pyridin-2-yl}-benzoic acid] showed an IC50 [1] of 1000 to 5000 nM and an IC50 [2] of 100 to 1000 nM.
Compound `COc1cc(C(=O)N(C)CCCO)ccc1-c1cc2nccc(-c3ccc(OC4CCOCC4)c(C#N)c3)c2o1` [Compound 258, 4-(7-(3-cyano-4-(tetrahydro-2H-pyran-4-yloxy)phenyl)furo[3,2-b]pyridin-2-yl)-N-(3-hydroxypropyl)-3-methoxy-N-methylbenzamide hydrochloride] has an IC50 [1] of under 100 nM and an IC50 [2] of under 100 nM.
For `CN(C)C(=O)c1ccc(-c2cc3nccc(-c4ccc(NC5CC(C)(C)OC(C)(C)C5)c(C#N)c4)c3o2)cc1` [Compound 218, 4-(7-(3-cyano-4-(2,2,6,6-tetramethyl-tetrahydro-2H-pyran-4-ylamino)phenyl)furo[3,2-b]pyridin-2-yl)-N,N-dimethylbenzamide], the IC50 [1] was 1000 to 5000 nM and the IC50 [2] was 1000 to 5000 nM.
For `COc1cc(C(=O)N[C@@H]2CCNC[C@@H]2F)ccc1-c1cc2nccc(-c3cc(F)c(NC4CCOCC4)c(C#N)c3)c2o1` (single isomer, unassigned) [Compound 254, 4-(7-(3-cyano-5-fluoro-4-(tetrahydro-2H-pyran-4-ylamino)phenyl)furo[3,2-b]pyridin-2-yl)-N-(3-fluoropiperidin-4-yl)-3-methoxybenzamide hydrochloride], the IC50 [1] was 100 to 1000 nM and the IC50 [2] was under 100 nM.
Work on `CN(CCO)C(=O)c1ccc(-c2cc3ncc(Cl)c(-c4ccc(OC5CCOCC5)c(C#N)c4)c3o2)c(F)c1` [Compound 267, 4-(6-chloro-7-(3-cyano-4-(tetrahydro-2H-pyran-4-yloxy)phenyl)furo[3,2-b]pyridin-2-yl)-3-fluoro-N-(2-hydroxyethyl)-N-methylbenzamide] yielded an IC50 [1] of 1000 to 5000 nM and an IC50 [2] of over 5000 nM.
In the case of `COc1cc(C(=O)N(C)C)ccc1-c1cc2nccc(-c3cc(C#N)c(OC4CCOCC4)c(C4CC4)c3)c2o1` [Compound 307, 4-(7-(3-cyano-5-cyclopropyl-4-(tetrahydro-2H-pyran-4-yloxy)phenyl)furo[3,2-b]pyridin-2-yl)-3-methoxy-N,N-dimethylbenzamide], the IC50 [1] is reported as 100 to 1000 nM and the IC50 [2] is reported as 100 to 1000 nM.
